Experimental findings from patent publication US5374636A, “2,3-trans-disubstituted tropane compounds which have useful pharmaceutical utility” (NeuroSearch A/S, priority 1992, dated 1994) are described below.

Data set [1] concerns reuptake of dopamine in synaptosomes of rat forebmin. As to the kind of experiment: Inhibition of reuptake of dopamine in synaptosomes of rat forebrain (3H-dopamine uptake). It counts as biochemical, rat (male Wistar). Conditions: for IC50: rat forebrain synaptosomes, 3H-dopamine 1×10^-9 M, 10 min at 37° C., read-out: Dopamine reuptake inhibiting activity (IC50).
Method: Fresh whole forebmin (at 0°-4° C.) from male Wistar rats (150-200 g) is homogenized in a glass homogenizer with a teflon pestle in 20×volumes 0.32M sucrose. The homogenate is centrifuged at 1000×g (~2900 rpm) for 10 min. The pellet is discarded and the supernatant is used for uptake assays.
The samples are thoroughly mixed and incubated 10 min at 37° C. followed by 2 min at 0° C. After incubation the samples are poured directly onto Whatman GF/C glass fibre filters under suction and immediately washed with 2×5 ml ice-cold 0.9% saline (NaCI) buffer. To the filter is added 3 ml of scintillation fluid, and the amount of radioactivity on the filters is determined by conventional liquid scintillation counting.
Data set [2] has as its system serotonine (5-hydroxythryptamine, 5-HT) reuptake. Nature of the data set: Serotonin (5-HT) reuptake inhibition. Conditions: in combination with dopamine reuptake inhibition. It counts as biochemical.
Data set [3] has as its system abnormal stereotyped behaviour. As to the kind of experiment: Classification of the abnormal stereotyped behaviour (side effect). In kind it is in vivo, rat. An excerpt: Classification of the abnormal stereotyped behaviour.
Backward locomotion may occasionally be observed.
+=only stereotyped sniffing
++=stereotyped sniffing and episodic licking
+++=Continuous licking and/or biting gnawing

For data set [4], the system named is excitatory Iocomotor and rearing responses. As to the kind of experiment: Classification of behavioural excitatory locomotor and rearing responses (side effect). It counts as in vivo, rat (male SPF wistar).
Method: Male SPF wistar rats weighing 200-250 g were used for the gross behavioural studies. All rats were transferred the day before the experiments to individual cages made of wire netting (floor area 21×27 cm, height 16 cm) at a room temperature of 21°-23° C. […] The behavioural elements here classified as rearing (i.e. standing up on the hindlegs) and Iocomotor activities (i.e. forward running activities) were registered, and the maximum peak effects were classified according to the following rating scale:
0=non-existent or very infrequent
++=moderate in intensity and frequency
+++=very strong, continuous and intense

As a reminder, the IC50 is the midpoint of a concentration-inhibition curve.

Each structure is given as a SMILES string.

In the case of `CN1[C@H]2CC[C@@H]1[C@H](COc1ccc(Cl)cc1)[C@@H](c1ccc(F)cc1)C2.Cl` [(1R,2R,3S)-2-(4-Chlorophenoxy-methyl)-3-(4-fluorophenyl)tropane, hydrochloride], in data set [1], the “dopamine reuptake inhibiting activity (in words)” value is recorded as “potent dopamine reuptake inhibiting activity” and the IC50 is 390 nM. Moreover, the “serotonine (5-HT) reuptake inhibiting activity” value in data set [2] was “very potent serotonine (5-hydroxythryptamine, 5-HT) reuptake inhibiting activity”. Moreover, in data set [3] (50 mg/kg i.p.), the “Activity (high intensity abnormal stereotyped behaviour)” value is 0.
With `COC(=O)[C@@H]1[C@@H](c2ccc3ccccc3c2)C[C@@H]2CC[C@H]1N2C` [(1R,2R,3S)-2-carbomethoxy-3-(2-naphthyl)tropane], in data set [1], the IC50 came to 100 nM. In addition, the “Activity (high intensity abnormal stereotyped behaviour)” value in data set [3] (25 mg/kg i.p.) worked out at 0.
Consider `COC(=O)[C@@H]1[C@@H](c2ccc(Cl)c(Cl)c2)C[C@@H]2CC[C@H]1N2C` [(1R,2R,3S)-2-carbomethoxy-3-(3,4-dichlorophenyl)tropane], for which the IC50 in data set [1] was determined as 16 nM. In addition, the “Activity (high intensity abnormal stereotyped behaviour)” value in data set [3] (50 mg/kg i.p.) was “+++”. In data set [4] (50 mg/kg i.p.), the “Activity (excitatory locomotor and rearing responses, maximum peak effect)” value is recorded as “+”.
On to `COC(=O)[C@@H]1[C@@H](c2ccc(F)cc2)C[C@@H]2CC[C@H]1N2C` [trans isomer of Win 35,428, (1R,2R,3S)-2-carbomethoxy-3-(4-fluorophenyl)tropane], for which the “side effects as measured by excitatory locomotor activity and rearing responses as well as abnormal stereotyped behaviour” value in data set [4] (every relevant dosing level tested) is on record as “essentially or totally devoid of side effects”.
